Values after ≈ are worked out from the molar mass of the structure shown.
How the values were obtained:
[1] = tested on: S. obliqnus; test: Algicidal activity (growth inhibition, microplate, absorbance 650 nm) against S. obliqnus; assay type: cell-based; settings: for IC50 value S. obliqnus: 96-hour IC50, mean ± SD
Description: (§1) According to the method established by Schrader et al.[42], algicidal activity of alkaloid (1) and its amide analogues (7–32), as well as their hydrochloric salts (7S–27S), was evaluated against three typical […] algae, S. obliqnus, M. aeruginosa, and C. Pyrenoidosa at different concentrations. After three algae species were inoculated, the variation of algae density over 7 days were recorded continuously. […] The wavelength at 650 nm was determined as ideal incident wavelength for the measurement of algae density. Three […] algae S. obliqnus, M. aeruginosa, and C. pyrenoidosa were offered by Freshwater algae culture collection of the institute of Hydrobiology (FACHB-collection). Each culture for three species was maintained separately in continuous, steady-state growth microplates, which were placed in a growth chamber held at 28 ± 1 °C and illuminated continuously under fluorescent lights at a photon flux density of […]. Absorbance values of each wells were measured by a Packard model Spectra Count microplate photometer.
(§2) Alkaloid (1) and its analogues (7–32), as well as their hydrochloric salts (7S–27S), were dissolved separately in DMSO to provide stock solution concentrations. Initially, each stock solution was aseptically pipetted into the bottom of separate wells (20 μL per well) in a 96-well microplate and the final test concentrations for each sample were 0, 0.78, 1.56, 3.12, 6.25, 12.5, and 25 μg/mL. Wells of control samples contained only unialgal culture. The solution of CuSO4 and Diuron at the same concentration were chose as the reference sample. Each experiment was performed at least three times. Through measuring the area values under the individual growth curves, the inhibitory rate (%) for the individual tested concentration was calculated according to the following equation (1):1 Ii=(Ac−Ai)/[…]×100% • Ii: inhibitory rate of biomass growth by toxicant concentration i (%) • Ac: average area under the growth curve by control sample • Ai: average area under the growth curve by test concentration i
(§3) Mean values of 96-hour IC50 were determined for each group of plates, and standard deviation were calculated and reported as the mean ± SD.
(§4) The IC50 values of all compounds against three freshwater algae species were calculated using SPSS v19.0, and the algicidal activities of alkaloid (1) and its amide analogues (7–32), as well as the corresponding hydrochloric salts (7S–27S) are listed in Table 1 and 2, respectively.

[2] = tested on: C. pyrenoidosa; test: Algicidal activity (growth inhibition, microplate, absorbance 650 nm) against C. pyrenoidosa; assay type: cell-based, Chlorella pyrenoidosa; settings: for IC50 value C. pyrenoidosa: 96-hour IC50, mean ± SD
Description: as §1, §2, §3, §4

[3] = tested on: M. aeruginosa; test: Algicidal activity (growth inhibition, microplate, absorbance 650 nm) against M. aeruginosa; assay type: cell-based; settings: for IC50 value M. aeruginosa: 96-hour IC50, mean ± SD; for growth inhibitory ratio: 3.13 μg/mL
Description: as §1, §2, §3, §4
Currently, M. aeruginosa appears to be the most harmful algae existing in the freshwater bodies in the developing countries. To investigate growth inhibitory potential of this class of thiazole amides on M. aeruginosa, thiazole amide (10) and its hydrochloric acid salt (10S) were subject to further survey for the optimal inhibition time and concentration (Figs 3 and 4). […] The variation of growth inhibitory ratios of compounds (10) and (10S) against M. aeruginosa at the lowest complete inhibition concentration is illustrated in Fig. 4. As observed, for administration of thiazole amide (10), the growth inhibitory ratios after 96 and 120 hours increase gradually to 79% and 92%, respectively. Under the same experimental conditions, growth inhibitory ratios for the salt (10S) are 82% and 88%, respectively.

Row | SMILES | IC50 value S. obliqnus [1] [µg/mL] | IC50 value C. pyrenoidosa [2] [µg/mL] | IC50 value M. aeruginosa [3] [µg/mL] | growth inhibitory ratio ([3]; after 96 hours) [%] | growth inhibitory ratio ([3]; after 120 hours) [%] | IC50 ([1]; 96 h, read-out: IC50 value S. obliqnus) [µg/mL] | IC50 ([2]; Auxenochlorella pyrenoidosa, 96 h, read-out: IC50 value C. pyrenoidosa) [µg/mL] | IC50 ([3]; Microcystis aeruginosa, 96 h, read-out: IC50 value M. aeruginosa) [µg/mL]
1 | C[C@H](N)c1nc(C(=O)Nc2ccccc2)cs1.Cl [7S] | 0.14 ± 0.06 | 2.54 ± 0.28 | 1.33 ± 0.16 | – | – | – | – | –
2 | C[C@H](N)c1nc(C(=O)Nc2ccc(F)cc2)cs1.Cl [8S] | 1.14 ± 0.09 | 2.69 ± 0.23 | 3.00 ± 0.12 | – | – | – | – | –
3 | C[C@H](N)c1nc(C(=O)Nc2ccc(Cl)cc2)cs1.Cl [9S] | 4.00 ± 0.34 | 0.40 ± 0.10 | 1.18 ± 0.21 | – | – | – | – | –
4 | C[C@H](N)c1nc(C(=O)Nc2ccc(Br)cc2)cs1.Cl [10S] | – | – | – | 82 | 88 | – | – | –
5 | Cc1ccc(NC(=O)c2csc([C@H](C)N)n2)cc1.Cl [11S] | 6.83 ± 0.45 | 3.37 ± 0.28 | 4.34 ± 0.36 | – | – | – | – | –
6 | COc1ccc(NC(=O)c2csc([C@H](C)N)n2)cc1.Cl [12S] | 3.16 ± 0.29 | 2.88 ± 0.39 | 1.40 ± 0.18 | – | – | – | – | –
7 | C[C@H](N)c1nc(C(=O)Nc2cccc(Cl)c2)cs1.Cl [14S] | 2.01 ± 0.19 | 0.66 ± 0.06 | 0.79 ± 0.08 | – | – | – | – | –
8 | C[C@H](N)c1nc(C(=O)Nc2cccc(Br)c2)cs1.Cl [15S] | 1.59 ± 0.16 | 2.75 ± 0.30 | 2.96 ± 0.26 | – | – | – | – | –
9 | Cc1cccc(NC(=O)c2csc([C@H](C)N)n2)c1.Cl [16S] | 4.07 ± 0.39 | 1.82 ± 0.14 | 1.95 ± 028 | – | – | – | – | –
10 | C[C@H](N)c1nc(C(=O)Nc2cccc(C(F)(F)F)c2)cs1.Cl [17S] | 1.59 ± 0.23 | 2.39 ± 0.24 | 3.09 ± 0.42 | – | – | – | – | –
11 | C[C@H](N)c1nc(C(=O)Nc2ccccc2F)cs1.Cl [18S] | 1.12 ± 0.09 | 0.27 ± 0.09 | 0.26 ± 0.01 | – | – | – | – | –
12 | C[C@H](N)c1nc(C(=O)Nc2ccccc2Cl)cs1.Cl [19S] | 0.14 ± 0.02 | 2.50 ± 0.16 | 3.07 ± 0.34 | – | – | – | – | –
13 | C[C@H](N)c1nc(C(=O)Nc2ccccc2Br)cs1.Cl [20S] | 0.68 ± 0.06 | 0.41 ± 0.04 | 1.23 ± 0.12 | – | – | – | – | –
14 | Cc1ccccc1NC(=O)c1csc([C@H](C)N)n1.Cl [21S] | 13.63 ± 1.20 | 5.15 ± 0.56 | 4.93 ± 045 | – | – | – | – | –
15 | COc1ccccc1NC(=O)c1csc([C@H](C)N)n1.Cl [22S] | 1.74 ± 0.24 | 0.35 ± 0.02 | 1.12 ± 0.16 | – | – | – | – | –
16 | C[C@H](N)c1nc(C(=O)Nc2ccc(OC(F)(F)F)cc2)cs1.Cl [23S] | 4.68 ± 0.38 | 0.66 ± 0.03 | 4.45 ± 0.58 | – | – | – | – | –
17 | C[C@H](N)c1nc(C(=O)Nc2ccc(Cl)c(Cl)c2)cs1.Cl [24S] | 5.59 ± 0.78 | 3.42 ± 0.32 | 5.18 ± 0.66 | – | – | – | – | –
18 | Cc1cc(NC(=O)c2csc([C@H](C)N)n2)ccc1F.Cl [25S] | 16.62 ± 1.48 | 1.59 ± 0.19 | 1.79 ± 0.22 | – | – | – | – | –
19 | CCOC(=O)c1ccc(NC(=O)c2csc([C@H](C)N)n2)cc1.Cl [26S] | 10.60 ± 1.18 | 2.38 ± 0.32 | 2.46 ± 0.23 | – | – | – | – | –
20 | O=S(=O)([O-])[O-].[Cu+2] [CuSO4, reference compound] | 0.99 ± 0.06 | 1.56 ± 0.09 | 1.29 ± 0.02 | – | – | – | – | –
21 | CN(C)C(=O)Nc1ccc(Cl)c(Cl)c1 [Diuron, reference compound] | – | – | – | – | – | 0.79 ± 0.08 (≈ 3.39 µM) | 1.42 ± 0.27 (≈ 6.09 µM) | 1.35 ± 0.15 (≈ 5.79 µM)
